Experimental data reported in patent US20190322676A1, “CERAMIDE GALACTOSYLTRANSFERASE INHIBITORS FOR THE TREATMENT OF DISEASE” (BioMarin Pharmaceutical Inc., priority 2016, published 2019).
Structures can show the parent of a compound that is named as a salt.

Target: T1, human CGT (ceramide galactosyltransferase), CHO/CGT lysate (Homo sapiens, UniProt Q16880)
T1 construct: Full-length human CGT cDNA was cloned into the BamH1/Xho1 site of pcDNA3.1 (+); expressed in transfected cells; host or cells: Chinese hamster ovary (CHO) cells; lysate prepared with M-PER
T1 sequence (Q16880 21-541): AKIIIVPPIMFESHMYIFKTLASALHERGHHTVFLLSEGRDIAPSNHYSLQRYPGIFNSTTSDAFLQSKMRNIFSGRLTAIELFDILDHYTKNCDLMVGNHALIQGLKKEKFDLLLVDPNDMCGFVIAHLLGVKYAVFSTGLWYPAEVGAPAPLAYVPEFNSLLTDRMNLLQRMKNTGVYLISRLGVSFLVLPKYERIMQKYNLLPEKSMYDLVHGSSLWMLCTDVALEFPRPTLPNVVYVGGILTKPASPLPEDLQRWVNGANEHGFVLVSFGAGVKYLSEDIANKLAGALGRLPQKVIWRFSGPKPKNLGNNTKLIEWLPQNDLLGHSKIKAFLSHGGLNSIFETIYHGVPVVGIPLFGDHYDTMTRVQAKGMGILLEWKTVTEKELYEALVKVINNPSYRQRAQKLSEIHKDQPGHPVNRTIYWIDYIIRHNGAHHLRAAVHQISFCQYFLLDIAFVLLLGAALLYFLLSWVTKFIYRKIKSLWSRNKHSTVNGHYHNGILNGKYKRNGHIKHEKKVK
Assay: CGT enzyme assay, RapidFire/MS/MS readout (Table 1 ranges with one asterisk *)
Format: biochemical
Settings: RapidFire method (range with one asterisk *)
Method in brief: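 IC50s come from variable-slope dose-response fits of internal-standard-normalized C6-NBD-dihydro-galactosylceramide, measured by RapidFire/MS/MS (ESI negative). Reactions: 1 h, 37 °C, human CGT-expressing CHO lysate (4 μg), 0.001–50 μM compound, 10 μM NBD-dihydro-ceramide, 17.5 μM UDP-galactose, 0.5% DMSO, pH 7.2; 0.01% Tween 80 added for ** values.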

Row | Structure (SMILES) | IC50
1 | NC1CC2CCC(C1)N2C(=O)[C@@H](NS(=O)(=O)c1ccc2c(cnn2CC2CCCC2)c1)C(F)(F)c1ccc(C(F)(F)F)cc1 (stereo partly drawn) [Compound 92-1, N-((2R)-3-(3-amino-8-azabicyclo[3.2.1]octan-8-yl)-1,1-difluoro-3-oxo-1-(4-(trifluoromethyl)phenyl)propan-2-yl)-1-(cyclopentylmethyl)-1H-indazole-5-sulfonamide] | < 1 µM
2 | NC1CC2CCC(C1)N2C(=O)[C@H](NS(=O)(=O)c1ccc(OCC2CCCCC2)cc1)C(F)(F)c1cccc(-c2ccccc2)c1 (stereo partly drawn) [Compound 70-2, N-((2S)-1-([1,1′-biphenyl]-3-yl)-3-(3-amino-8-azabicyclo[3.2.1]octan-8-yl)-1,1-difluoro-3-oxopropan-2-yl)-4-(cyclohexylmethoxy) benzenesulfonamide trifluoroacetate] | 1 to 10 µM
3 | CCN([C@H](C(=O)N1C2CCC1CC(N)C2)C(F)(F)c1ccc(Br)cc1)S(=O)(=O)c1ccc2cc(OC3CCCC3)ccc2c1 (stereo partly drawn) [Compound 68-1, N-((2R)-3-(3-amino-8-azabicyclo[3.2.1]octan-8-yl)-1-(4-bromophenyl)-1,1-difluoro-3-oxopropan-2-yl)-6-(cyclopentyloxy)-N-ethylnaphthalene-2-sulfonamide] | 1 to 10 µM
4 | N[C@H]1CCN(C(=O)[C@@H](NS(=O)(=O)c2ccc3cc(OC4CCCC4)ccc3c2)C(F)(F)c2ccc(Br)cc2)C1 [Compound 140-1, N—((R)-3-((S)-3-aminopyrrolidin-1-yl)-1-(4-bromophenyl)-1,1-difluoro-3-oxopropan-2-yl)-6-(cyclopentyloxy)naphthalene-2-sulfonamide] | 1 to 10 µM
5 | CN([C@H](C(=O)N1C2CCC1CC(N)C2)C(F)(F)c1ccc(O)cc1)S(=O)(=O)c1ccc2cc(OC3CCCC3)ccc2c1 (stereo partly drawn) [Compound 110-1, N-((2R)-3-(3-amino-8-azabicyclo[3.2.1]octan-8-yl)-1,1-difluoro-1-(4-hydroxyphenyl)-3-oxopropan-2-yl)-6-(cyclopentyloxy)-N-methylnaphthalene-2-sulfonamide trifluoroacetate] | 1 to 10 µM
6 | NC1CC2CCC(C1)N2C(=O)[C@H](NS(=O)(=O)c1ccc(OCC2CCCCC2)cc1)C(F)(F)c1ccc(Oc2ccccc2)cc1 (stereo partly drawn) [Compound 84-2, N-((2S)-3-(3-amino-8-azabicyclo[3.2.1]octan-8-yl)-1,1-difluoro-3-oxo-1-(4-phenoxyphenyl)propan-2-yl)-4-(cyclohexylmethoxy) benzenesulfonamide] | 10 to 30 µM
7 | CC(C)Oc1ccc2cc(S(=O)(=O)N(C)[C@@H](C(=O)N3C4CCC3CC(N)C4)C(F)(F)c3ccc(Br)cc3)ccc2c1 (stereo partly drawn) [Compound 46-2, N-((2S)-3-(3-amino-8-azabicyclo[3.2.1]octan-8-yl)-1-(4-bromophenyl)-1,1-difluoro-3-oxopropan-2-yl)-6-isopropoxy-N-methylnaphthalene-2-sulfonamide trifluoroacetate] | 30 to 100 µM
8 | NC1CC2CCC(C1)N2C(=O)[C@H](NS(=O)(=O)c1ccc2cc(OC3CCCC3)ccc2c1)C(F)(F)c1ccc(Oc2ccc(Cl)cc2)cc1 (stereo partly drawn) [Compound 121-2, N-((2S)-3-(3-amino-8-azabicyclo[3.2.1]octan-8-yl)-1-(4-(4-chlorophenoxy)phenyl)-1,1-difluoro-3-oxopropan-2-yl)-6-(cyclopentyloxy)naphthalene-2-sulfonamide] | 1 to 10 µM
9 | NC1CCN(C(=O)[C@H](NC(=O)[C@H](O)c2ccc(OCC3CCCCC3)cc2)C(F)(F)c2ccc(-c3ccc(Cl)cc3)cc2)CC1 [Compound 141-4, (R)—N—((S)-3-(4-aminopiperidin-1-yl)-1-(4′-chloro-[1,1′-biphenyl]-4-yl)-1,1-difluoro-3-oxopropan-2-yl)-2-(4-(cyclohexylmethoxy)phenyl)-2-hydroxyacetamide trifluoroacetate] | 30 to 100 µM
10 | NC1CCN(C(=O)[C@@H](NS(=O)(=O)c2ccc3cc(OC4CCCC4)ccc3c2)C(F)(F)c2ccc(C(F)(F)F)cc2)CC1 [Compound 71-1, (R)—N-(3-(4-aminopiperidin-1-yl)-1,1-difluoro-3-oxo-1-(4-(trifluoromethyl)phenyl)propan-2-yl)-6-(cyclopentyloxy)naphthalene-2-sulfonamide] | < 1 µM
11 | NC1CC2CCC(C1)N2C(=O)[C@H](NS(=O)(=O)c1ccc2cc(OC3CCCC3)ccc2c1)C(F)(F)c1ccc(Cl)cc1 (stereo partly drawn) [Compound 28-2, N-((2S)-3-(3-amino-8-azabicyclo[3.2.1]octan-8-yl)-1-(4-chlorophenyl)-1,1-difluoro-3-oxopropan-2-yl)-6-(cyclopentyloxy)naphthalene-2-sulfonamide trifluoroacetate] | 1 to 10 µM
12 | NC1CC2CCC(C1)N2C(=O)[C@@H](NS(=O)(=O)c1ccc2cc(OC3CCCC3)ccc2c1)C(F)(F)c1ccc(-c2ccccc2)cc1 (stereo partly drawn) [Compound 36-1, N-((2R)-1-([1,1′-biphenyl]-4-yl)-3-(3-amino-8-azabicyclo[3.2.1]octan-8-yl)-1,1-difluoro-3-oxopropan-2-yl)-6-(cyclopentyloxy)naphthalene-2-sulfonamide trifluoroacetate] | < 1 µM
13 | CN([C@@H](C(=O)N1C2CCC1CC(N)C2)C(F)(F)c1ccc(Br)cc1)S(=O)(=O)c1ccc2cc(OC3CCCC3)ccc2c1 (stereo partly drawn) [Compound 34-2, N-((2S)-3-(3-amino-8-azabicyclo[3.2.1]octan-8-yl)-1-(4-bromophenyl)-1,1-difluoro-3-oxopropan-2-yl)-6-(cyclopentyloxy)-N-methylnaphthalene-2-sulfonamide trifluoroacetate] | 30 to 100 µM
14 | CCCCOc1ccc(C(F)(F)[C@H](C(=O)N2CCC(N)CC2)N(C)S(=O)(=O)c2ccc(OCC3CCCCC3)cc2)cc1 [Compound 58-2, (S)—N-(3-(4-aminopiperidin-1-yl)-1-(4-butoxyphenyl)-1,1-difluoro-3-oxopropan-2-yl)-4-(cyclohexylmethoxy)-N-methylbenzenesulfonamide] | 10 to 30 µM
15 | CCCCOc1ccc(C(F)(F)[C@@H](C(=O)N2C3CCC2CC(N)C3)N(C)S(=O)(=O)c2ccc(OCC3CCCCC3)cc2)cc1 (stereo partly drawn) [Compound 79-1, N-((2R)-3-(3-amino-8-azabicyclo[3.2.1]octan-8-yl)-1-(4-butoxyphenyl)-1,1-difluoro-3-oxopropan-2-yl)-4-(cyclohexylmethoxy)-N-methylbenzenesulfonamide] | 1 to 10 µM
16 | CC(C)N([C@@H](C(=O)N1C2CCC1CC(N)C2)C(F)(F)c1ccc(Br)cc1)S(=O)(=O)c1ccc2cc(OC3CCCC3)ccc2c1 (stereo partly drawn) [Compound 76-2, N-((2S)-3-(3-amino-8-azabicyclo[3.2.1]octan-8-yl)-1-(4-bromophenyl)-1,1-difluoro-3-oxopropan-2-yl)-6-(cyclopentyloxy)-N-isopropylnaphthalene-2-sulfonamide] | 30 to 100 µM
17 | NC1CC2CCC(C1)N2C(=O)[C@H](NS(=O)(=O)c1ccc2cc(OC3CCCC3)ccc2c1)C(F)(F)c1ccc(I)cc1 (stereo partly drawn) [Compound 42-2, N-((2S)-3-(3-amino-8-azabicyclo[3.2.1]octan-8-yl)-1,1-difluoro-1-(4-iodophenyl)-3-oxopropan-2-yl)-6-(cyclopentyloxy) naphthalene-2-sulfonamide trifluoroacetate] | 1 to 10 µM
18 | CCCCOc1ccc(C(F)(F)[C@@H](C(=O)N2CCC(N)CC2)N(C)S(=O)(=O)c2ccc3cc(OC4CCCC4)ccc3c2)cc1 [Compound 53-1, (R)—N-(3-(4-aminopiperidin-1-yl)-1-(4-butoxyphenyl)-1,1-difluoro-3-oxopropan-2-yl)-6-(cyclopentyloxy)-N-methylnaphthalene-2-sulfonamide] | 1 to 10 µM
19 | NC1CCN(C(=O)[C@@H](NS(=O)(=O)c2ccc3cc(OC4CCCC4)ccc3c2)C(F)(F)c2ccc(-c3ccccc3)cc2)CC1 [Compound 43-1, (R)—N-(1-([1,1′-biphenyl]-4-yl)-3-(4-aminopiperidin-1-yl)-1,1-difluoro-3-oxopropan-2-yl)-6-(cyclopentyloxy)naphthalene-2-sulfonamide] | < 1 µM
20 | NC1CCN(C(=O)[C@H](NC(=O)[C@@H](O)c2ccc(OCC3CCCCC3)cc2)C(F)(F)c2ccc(-c3ccc(Cl)cc3)cc2)CC1 [Compound 141-2, (S)—N—((S)-3-(4-aminopiperidin-1-yl)-1-(4′-chloro-[1,1′-biphenyl]-4-yl)-1,1-difluoro-3-oxopropan-2-yl)-2-(4-(cyclohexylmethoxy)phenyl)-2-hydroxyacetamide trifluoroacetate] | 10 to 30 µM
21 | NC1CC2CCC(C1)N2C(=O)[C@H](NS(=O)(=O)c1ccc2cc(OC3CCCC3)ccc2c1)C(F)(F)c1cccc(Br)c1 (stereo partly drawn) [Compound 65-2, N-((2S)-3-(3-amino-8-azabicyclo[3.2.1]octan-8-yl)-1-(3-bromophenyl)-1,1-difluoro-3-oxopropan-2-yl)-6-(cyclopentyloxy)naphthalene-2-sulfonamide] | 10 to 30 µM
22 | NC1CC2CCC(C1)N2C(=O)[C@@H](NC(=O)[C@H](O)c1ccc2cc(OC3CCCC3)ccc2c1)C(F)(F)c1ccc(Br)cc1 (stereo partly drawn) [Compound 41-5, (2R)—N-((2R)-3-(3-amino-8-azabicyclo[3.2.1]octan-8-yl)-1-(4-bromophenyl)-1,1-difluoro-3-oxopropan-2-yl)-2-(6-(cyclopentyloxy)naphthalen-2-yl)-2-hydroxyacetamide trifluoroacetate] | 10 to 30 µM
